Patent US20220265629A1, “TREATMENT OF SYSTOLIC DYSFUNCTION AND HEART FAILURE WITH REDUCED EJECTION FRACTION WITH THE COMPOUND (R)-4-(1-((3-(DIFLUOROMETHYL)-1-METHYL-1H-PYRAZOL-4-YL)SULFONYL)-1-FLUOROETHYL)-N-(ISOXAZOL-3-YL)PIPERIDINE-1-CARBOXAMIDE” (MyoKardia, Inc., priority 2019, published 2022)
Where two headings read alike, the source gives them in different places.

Test: Food effect cross-over study, 200 mg (25 mg tablets), healthy volunteers: plasma pharmacokinetics
Format: in vivo, human
Conditions: for concentration at 36 h / concentration at 48 h / concentration at 72 h / AUC(0-inf) / AUC(0-t) / Cmax / Tmax / MRT / half-life: human, plasma; for concentration at 36 h: 36 hours postdose; for concentration at 48 h: 48 hours postdose; for concentration at 72 h: 72 hours postdose
Description: This example describes a clinical study for establishing, in healthy volunteers, the effect of a high fat, high caloric meal on the PK profile of Compound I, as compared to administration of the drug in the fasted state. The study also was intended to determine the safety and tolerability after a single oral dose of Compound I in the fed and fasted state in healthy volunteers. The measurements of PK, PD, and other clinical parameters were done as described in Example 1 above.
This study was an open-label, randomized, two-period cross-over study in healthy volunteers aged 18-55 years. Subjects were screened up to 28 days before the first treatment period. Subjects were admitted to the clinical site on Day −1 (the day before dosing) of Period 1. Approximately half of the subjects randomly received a single dose of Compound I on Day 1 of the first treatment period after the ingestion of a high fat, high caloric breakfast, and the remainder were closed in the fasted state. Any subject with a preclose resting HR≥95 beats per minute (bpm) was considered ineligible and was not treated. Any subjects with an acute gastrointestinal disorder which could impact drug/food absorption (e.g., vomiting, diarrhea) were rescheduled. Subjects were confined to the clinic until Day 4, and discharged after the 72-hour postclose PK and laboratory samples and vital signs were obtained. After a washout between dosing from 7 to 10 days (or, after consultation with the Investigator, up to 21 days after initial dosing if the subject was unable to attend within the 7 to 10-day window), the subject was admitted for Period 2. The sequence of fed/fasted versus fasted/fed periods was randomized. Subjects returned after the second treatment period for a safety follow-up visit on Day 7 (±1 day).
In both treatment periods, Compound I was administered with 240 mL of water. In the fasted state, the subjects fasted for 10 hours before and for 4 hours after the administration of Compound I. Water could have been ingested up to 1 hour before and after 1 hour post dosing. In the fed state, the subjects fasted for 10 hours before and for 4 hours after the ingestion of the meal, but could have ingested water up to 1 hour before and 1 hour after dosing. In the fed state, the subjects started ingesting the high fat, high caloric meal within 30 minutes prior to Compound I administration and finished the meal within 30 minutes. The meal contained approximately 800 to 1000 calories with about 50% of the calories from fat. The meal consisted of approximately 150 calories from protein, 250 calories from carbohydrate, and 500-600 calories from fat. An example of the meal was a breakfast consisting of two eggs fried in butter, two strips of bacon, two slices of buttered toast, 4 ounces of hash brown potatoes, and 8 ounces of whole milk.
Each subject received two oral doses of 200 mg of Compound I formulated as 25 mg tablets (8 tablets) in a randomized, cross-over fashion, once in the fasted state and the other time after the ingestion of a high fat, high caloric breakfast. There was a washout of between 7 and 21 days between the administrations of the two closes. The Compound I drug substance was a crystalline, free-base, synthetic molecule with a molecular weight of 435.4.
Plasma drug concentrations were measured as described in Example 1 above. Blood samples to measure Compound I plasma concentration were collected at various time points, including on Day 1 preclose (1 hour prior to dosing) and at 1 (±5 min), 2 (±5 min), 3 (±5 min), 4 (+10 min), 5 (+10 min), 6 (+10 min), 9 (+20 min), 12 (+20 min), 18 (+30 min), 24 (+30 min), 36 (+30 min), 48 (+30 min), and 72 (+30 min) hours postclose on both treatment periods.
To assess the effect of food on the PK of Compound I, the two one-sided t-test procedure was used to construct 90% CI around the geometric mean ratios (fed/fasted) of plasma AUCinf, AUClast, and Cmax. […]

[1] = oral, Fed, read-out: Plasma concentration, Geometric Mean
[2] = oral, Fed, read-out: Plasma concentration, Mean
[3] = oral, Fed, read-out: Plasma concentration, Median
[4] = oral, Fasted, read-out: Plasma concentration, Geometric Mean
[5] = oral, Fasted, read-out: Plasma concentration, Mean
[6] = oral, Fasted, read-out: Plasma concentration, Median
[7] = subjects who completed both fasted and fed periods (N = 9)
[8] = subjects who completed both periods (N = 9)

SMILES: Cn1cc(S(=O)(=O)[C@@](C)(F)C2CCN(C(=O)Nc3ccon3)CC2)c(C(F)F)n1 [Compound I, (R)-4-(1-((3-(difluoromethyl)-1-methyl-1H-pyrazol-4-yl)sulfonyl)-1-fluoroethyl)-N-(isoxazol-3-yl)piperidine-1-carboxamide]
- concentration at 36 h [1]: 834 ng/mL
- concentration at 36 h [2]: 881 ng/mL
- concentration at 36 h [3]: 905 ng/mL
- concentration at 48 h [4]: 306 ng/mL
- concentration at 48 h [5]: 331 ng/mL
- concentration at 48 h [6]: 346 ng/mL
- concentration at 48 h [1]: 476 ng/mL
- concentration at 48 h [2]: 526 ng/mL
- concentration at 48 h [3]: 549 ng/mL
- concentration at 72 h [4]: 93.2 ng/mL
- concentration at 72 h [5]: 108 ng/mL
- concentration at 72 h [6]: 112 ng/mL
- concentration at 72 h [1]: 129 ng/mL
- concentration at 72 h [2]: 161 ng/mL
- concentration at 72 h [3]: 143 ng/mL
- AUC(0-inf) (oral, N = 11, read-out: AUCinf, Fasted LSGM): 59400 ng·h/mL
- AUC(0-inf) (oral, N = 11, read-out: AUCinf, Fed LSGM): 91600 ng·h/mL
- AUC(0-t) (oral, N = 11, read-out: AUClast, Fasted LSGM): 57400 ng·h/mL
- AUC(0-t) (oral, N = 11, read-out: AUClast, Fed LSGM): 88400 ng·h/mL
- Cmax (oral, N = 11, read-out: Cmax, Fasted LSGM): 2300 ng/mL
- Cmax (oral, N = 11, read-out: Cmax, Fed LSGM): 3640 ng/mL
- Cmax (oral, fasted state, read-out: Cmax of mean plasma concentrations): 2310 ng/mL
- Cmax (oral, fasted state, read-out: Cmax, Mean (SD)): 2350 ng/mL
- Tmax (oral, fasted state, read-out: Tmax, Median (range)): 5 h
- Tmax (oral, fasted state, read-out: tmax of mean plasma concentrations): 5 h
- Cmax (oral, fed state, read-out: Cmax of mean plasma concentrations): 3200 ng/mL
- Cmax (oral, fed state, read-out: Cmax, Mean (SD)): 3680 ng/mL
- Tmax (oral, fed state, read-out: Tmax, Median (range)): 5.5 h
- Tmax (oral, fed state, read-out: tmax of mean plasma concentrations): 6 h
- AUC(0-inf) (oral, subjects who completed both fasted and fed periods (N = 9), read-out: AUCinf, Fasted LSGM): 61100 ng·h/mL
- AUC(0-inf) (oral, subjects who completed both fasted and fed periods (N = 9), read-out: AUCinf, Fed LSGM): 93900 ng·h/mL
- AUC(0-t) (oral, subjects who completed both fasted and fed periods (N = 9), read-out: AUClast, Fasted LSGM): 59000 ng·h/mL
- AUC(0-t) (oral, subjects who completed both fasted and fed periods (N = 9), read-out: AUClast, Fed LSGM): 90500 ng·h/mL
- Cmax (oral, subjects who completed both fasted and fed periods (N = 9), read-out: Cmax, Fasted LSGM): 2370 ng/mL
- Cmax (oral, subjects who completed both fasted and fed periods (N = 9), read-out: Cmax, Fed LSGM): 3700 ng/mL
- AUC(0-inf) (po, single 200 mg oral dose, Fasted (N = 10), read-out: AUCinf, Geometric Mean): 61000 ng·h/mL
- AUC(0-inf) (po, single 200 mg oral dose, Fasted (N = 10), read-out: AUCinf, Mean): 62600 ng·h/mL
- AUC(0-inf) (po, single 200 mg oral dose, Fasted (N = 10), read-out: AUCinf, Median): 66700 ng·h/mL
- AUC(0-t) (po, single 200 mg oral dose, Fasted (N = 10), read-out: AUClast, Geometric Mean): 58800 ng·h/mL
- AUC(0-t) (po, single 200 mg oral dose, Fasted (N = 10), read-out: AUClast, Mean): 60200 ng·h/mL
- AUC(0-t) (po, single 200 mg oral dose, Fasted (N = 10), read-out: AUClast, Median): 64400 ng·h/mL
- Cmax (po, single 200 mg oral dose, Fasted (N = 10), read-out: Cmax, Geometric Mean): 2320 ng/mL
- Cmax (po, single 200 mg oral dose, Fasted (N = 10), read-out: Cmax, Mean): 2350 ng/mL
- Cmax (po, single 200 mg oral dose, Fasted (N = 10), read-out: Cmax, Median): 2400 ng/mL
- MRT (po, single 200 mg oral dose, Fasted (N = 10), read-out: MRT, Geometric Mean): 22.3 h
- MRT (po, single 200 mg oral dose, Fasted (N = 10), read-out: MRT, Mean): 22.6 h
- MRT (po, single 200 mg oral dose, Fasted (N = 10), read-out: MRT, Median): 23.9 h
- half-life (po, single 200 mg oral dose, Fasted (N = 10), read-out: T1/2, z, Geometric Mean (converted)): 14.1 h
- half-life (po, single 200 mg oral dose, Fasted (N = 10), read-out: T1/2, z, Mean (converted)): 14.3 h
- half-life (po, single 200 mg oral dose, Fasted (N = 10), read-out: T1/2, z, Median (converted)): 14.9 h
- Tmax (po, single 200 mg oral dose, Fasted (N = 10), read-out: Tmax, Geometric Mean): 4.58 h
- Tmax (po, single 200 mg oral dose, Fasted (N = 10), read-out: Tmax, Mean): 4.7 h
- Tmax (po, single 200 mg oral dose, Fasted (N = 10), read-out: Tmax, Median): 5 h
- AUC(0-inf) (po, single 200 mg oral dose, Fed (N = 10), read-out: AUCinf, Geometric Mean): 91600 ng·h/mL
- AUC(0-inf) (po, single 200 mg oral dose, Fed (N = 10), read-out: AUCinf, Mean): 93500 ng·h/mL
- AUC(0-inf) (po, single 200 mg oral dose, Fed (N = 10), read-out: AUCinf, Median): 94000 ng·h/mL
- AUC(0-t) (po, single 200 mg oral dose, Fed (N = 10), read-out: AUClast, Geometric Mean): 88400 ng·h/mL
- AUC(0-t) (po, single 200 mg oral dose, Fed (N = 10), read-out: AUClast, Mean): 89900 ng·h/mL
- AUC(0-t) (po, single 200 mg oral dose, Fed (N = 10), read-out: AUClast, Median): 89300 ng·h/mL
- Cmax (po, single 200 mg oral dose, Fed (N = 10), read-out: Cmax, Geometric Mean): 3640 ng/mL
- Cmax (po, single 200 mg oral dose, Fed (N = 10), read-out: Cmax, Mean): 3680 ng/mL
- Cmax (po, single 200 mg oral dose, Fed (N = 10), read-out: Cmax, Median): 3770 ng/mL
- MRT (po, single 200 mg oral dose, Fed (N = 10), read-out: MRT, Geometric Mean): 22.6 h
- MRT (po, single 200 mg oral dose, Fed (N = 10), read-out: MRT, Mean): 23.1 h
- MRT (po, single 200 mg oral dose, Fed (N = 10), read-out: MRT, Median): 23.6 h
- half-life (po, single 200 mg oral dose, Fed (N = 10), read-out: T1/2, z, Geometric Mean (converted)): 13.6 h
- half-life (po, single 200 mg oral dose, Fed (N = 10), read-out: T1/2, z, Mean (converted)): 13.8 h
- half-life (po, single 200 mg oral dose, Fed (N = 10), read-out: T1/2, z, Median (converted)): 13.5 h
- Tmax (po, single 200 mg oral dose, Fed (N = 10), read-out: Tmax, Geometric Mean): 6.02 h
- Tmax (po, single 200 mg oral dose, Fed (N = 10), read-out: Tmax, Mean): 6.9 h
- Tmax (po, single 200 mg oral dose, Fed (N = 10), read-out: Tmax, Median): 5.5 h
- AUCinf, Geometric Mean Ratio - Fed/Fasted (% of Reference) [7]: 153.63%
- AUClast, Geometric Mean Ratio - Fed/Fasted (% of Reference) [7]: 153.20%
- Cmax, Geometric Mean Ratio - Fed/Fasted (% of Reference) [7]: 156.43%
- Cmax, geometric mean ratio (fed/fasted) [8]: 156.43%
- increases for AUCinf, AUC0-t and Cmax in the fed state [8]: approximately 50%
